What follows are molecules tested against human NK-3 receptor (Homo sapiens (Human), UniProt P29371) (assay: 3H-SB222200 binding competition assay with human NK-3 receptor). Settings: 3H-SB222200 displacement, CHO cell membranes expressing human NK3 receptor; read-out: Ki range.
Sequence of human NK-3 receptor (P29371 whole entry): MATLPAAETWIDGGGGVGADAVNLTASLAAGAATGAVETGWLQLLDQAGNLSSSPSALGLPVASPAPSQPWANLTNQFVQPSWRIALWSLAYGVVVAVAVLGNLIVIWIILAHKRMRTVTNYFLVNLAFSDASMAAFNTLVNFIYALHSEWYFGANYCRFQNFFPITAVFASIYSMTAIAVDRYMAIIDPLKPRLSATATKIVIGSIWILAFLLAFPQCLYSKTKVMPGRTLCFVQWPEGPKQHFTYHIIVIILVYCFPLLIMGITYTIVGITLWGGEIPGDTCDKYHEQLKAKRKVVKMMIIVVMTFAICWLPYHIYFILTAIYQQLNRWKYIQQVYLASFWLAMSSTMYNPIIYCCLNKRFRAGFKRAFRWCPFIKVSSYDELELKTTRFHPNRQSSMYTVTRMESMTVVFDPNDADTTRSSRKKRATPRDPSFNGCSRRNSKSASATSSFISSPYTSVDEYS
Procedure, shortened: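 Membranes from CHO cells expressing human NK3 receptor incubated with 5 nM 3H-SB222200 and test compound in HEPES 25 mM/NaCl 0.1M/CaCl2 1 mM/MgCl2 5 mM/BSA 0.5%/saponin 10 μg/ml, pH 7.4. Bound radioligand counted after filtration; Ki calculated, reported in bands (+++ <500 nM to # >5 μM).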
`O=C(c1ccc(-c2ccccc2)cc1)N1CCn2c(nnc2-c2ccc3ccccc3n2)C1` [Compound 19, [1,1′-biphenyl]-4-yl(3-(quinolin-2-yl)-5,6-dihydro-[1,2,4]triazolo[4,3-a]pyrazin-7(8H)-yl)methanone] showed a Ki of under 500 nM.
Work on `CC(C)c1nc(-c2nnc3n2CCN(C(=O)c2ccc(F)cc2)C3)cs1` [Compound 208, (4-fluorophenyl)(3-(2-isopropylthiazol-4-yl)-5,6-dihydro-[1,2,4]triazolo[4,3-a]pyrazin-7(8H)-yl)methanone] yielded a Ki of 1000 to 5000 nM.
Molecule `O=C(c1ccc(-c2cccs2)cc1)N1CCn2c(nnc2-c2csc(-c3ccccc3)n2)C1` [Compound 54, (3-(2-phenylthiazol-4-yl)-5,6-dihydro-[1,2,4]triazolo[4,3-a]pyrazin-7(8H)-yl)(4-(thiophen-2-yl)phenyl)methanone] has a Ki of under 500 nM.
`O=C(c1ccc(F)cc1)N1CCn2c(nnc2-c2csc(-c3ccc(N4CCCC4)cc3)n2)C1` [Compound 246, (4-fluorophenyl)(3-(2-(4-(pyrrolidin-1-yl)phenyl)thiazol-4-yl)-5,6-dihydro-[1,2,4]triazolo[4,3-a]pyrazin-7(8H)-yl)methanone] was tested, and the Ki was under 500 nM.
In the case of `O=C(c1ccccc1-c1ccccc1)N1CCn2c(nnc2-c2ccc3ccccc3n2)C1` [Compound 96, [1,1′-biphenyl]-2-yl(3-(quinolin-2-yl)-5,6-dihydro-[1,2,4]triazolo[4,3-a]pyrazin-7(8H)-yl)methanone], the Ki is reported as over 5000 nM.
`O=C(c1ccc(-c2ccccc2)cc1)N1CCn2c(nnc2-c2csc(CS(=O)(=O)c3ccc(Cl)cc3)n2)C1` [Compound 199, [1,1′-biphenyl]-4-yl(3-(2-(((4-chlorophenyl)sulfonyl)methyl)thiazol-4-yl)-5,6-dihydro-[1,2,4]triazolo[4,3-a]pyrazin-7(8H)-yl)methanone] gave a Ki of 1000 to 5000 nM.
`CC1c2nnc(-c3csc(N4CCOCC4)n3)n2CCN1C(=O)c1ccc(-c2ccccc2)cc1` (stereo not shown) [Compound 46, [1,1′-biphenyl]-4-yl(8-methyl-3-(2-morpholinothiazol-4-yl)-5,6-dihydro-[1,2,4]triazolo[4,3-a]pyrazin-7(8H)-yl)methanone] was tested, and the Ki was under 500 nM.
`C[C@H]1c2nnc(-c3csc(N4CCOCC4)n3)n2CCN1C(=O)c1ccc(-c2cccs2)cc1` [Compound 227, (S)-(8-methyl-3-(2-morpholinothiazol-4-yl)-5,6-dihydro-[1,2,4]triazolo[4,3-a]pyrazin-7(8H)-yl)(4-(thiophen-2-yl)phenyl)methanone] was tested, and the Ki was 500 to 1000 nM.
With `O=C(c1ccc(-c2cccs2)cc1)N1CCn2c(nnc2-c2csc(-c3ccc(N4CCCC4)cc3)n2)C1` [Compound 245, (3-(2-(4-(pyrrolidin-1-yl)phenyl)thiazol-4-yl)-5,6-dihydro-[1,2,4]triazolo[4,3-a]pyrazin-7(8H)-yl)(4-(thiophen-2-yl)phenyl)methanone] the Ki was under 500 nM.
`O=C(c1ccc(F)cc1)N1CCn2c(nnc2-c2nc3c(s2)CCCC3)C1` [Compound 27, (4-fluorophenyl)(3-(4,5,6,7-tetrahydrobenzo[d]thiazol-2-yl)-5,6-dihydro-[1,2,4]triazolo[4,3-a]pyrazin-7(8H)-yl)methanone] gave a Ki of under 500 nM.
For `C[C@H]1c2nnc(-c3ccc4ccccc4n3)n2CCN1C(=O)c1ccc(-c2cccs2)cc1` [Compound 163, (S)-(8-methyl-3-(quinolin-2-yl)-5,6-dihydro-[1,2,4]triazolo[4,3-a]pyrazin-7(8H)-yl)(4-(thiophen-2-yl)phenyl)methanone], the Ki was 500 to 1000 nM.
`O=C(c1ccc(-c2ccccc2)nc1)N1CCn2c(nnc2-c2ccc3ccccc3n2)C1` [Compound 91, (6-phenylpyridin-3-yl)(3-(quinolin-2-yl)-5,6-dihydro-[1,2,4]triazolo[4,3-a]pyrazin-7(8H)-yl)methanone] gave a Ki of under 500 nM.
`O=C(c1ccc(-c2ccc(F)cc2)cc1)N1CCn2c(nnc2-c2nc(-c3ccc(F)cc3)no2)C1` [Compound 205, (4′-fluoro-[1,1′-biphenyl]-4-yl)(3-(3-(4-fluorophenyl)-1,2,4-oxadiazol-5-yl)-5,6-dihydro-[1,2,4]triazolo[4,3-a]pyrazin-7(8H)-yl)methanone] gave a Ki of 500 to 1000 nM.
Work on `Cn1nc(-c2ccccc2)cc1-c1nnc2n1CCN(C(=O)c1ccc(F)cc1)C2` [Compound 225, (4-fluorophenyl)(3-(1-methyl-3-phenyl-1H-pyrazol-5-yl)-5,6-dihydro-[1,2,4]triazolo[4,3-a]pyrazin-7(8H)-yl)methanone] yielded a Ki of 1000 to 5000 nM.
`O=C(c1ccc(-c2cccs2)cc1)N1CCn2c(nnc2-c2csc(CS(=O)(=O)c3ccc(Cl)cc3)n2)C1` [Compound 198, (3-(2-(((4-chlorophenyl)sulfonyl)methyl)thiazol-4-yl)-5,6-dihydro-[1,2,4]triazolo[4,3-a]pyrazin-7(8H)-yl)(4-(thiophen-2-yl)phenyl)methanone] was tested, and the Ki was 1000 to 5000 nM.
`CC1c2nnc(-c3csc(-c4ccc(F)cc4F)n3)n2CCN1C(=O)c1ccc(-c2ccccc2)cc1` (stereo not shown) [Compound 79, [1,1′-biphenyl]-4-yl(3-(2-(2,4-difluorophenyl)thiazol-4-yl)-8-methyl-5,6-dihydro-[1,2,4]triazolo[4,3-a]pyrazin-7(8H)-yl)methanone] was tested, and the Ki was under 500 nM.
`COc1ccccc1-c1nc(-c2nnc3n2CCN(C(=O)c2ccc(F)cc2)C3)cs1` [Compound 201, (4-fluorophenyl)(3-(2-(2-methoxyphenyl)thiazol-4-yl)-5,6-dihydro-[1,2,4]triazolo[4,3-a]pyrazin-7(8H)-yl)methanone] showed a Ki of 1000 to 5000 nM.
`O=C(c1ccc(F)cc1)N1CCn2c(nnc2-c2csc(-c3ccc(N4CCCCC4)cc3)n2)C1` [Compound 244, (4-fluorophenyl)(3-(2-(4-(piperidin-1-yl)phenyl)thiazol-4-yl)-5,6-dihydro-[1,2,4]triazolo[4,3-a]pyrazin-7(8H)-yl)methanone] was tested, and the Ki was 500 to 1000 nM.
`O=C(c1ccc(Cl)cc1)N1CCn2c(nnc2-c2ccccn2)C1` [Compound 2, (4-chlorophenyl)(3-(pyridin-2-yl)-5,6-dihydro-[1,2,4]triazolo[4,3-a]pyrazin-7(8H)-yl)methanone] was tested, and the Ki was 1000 to 5000 nM.
In the case of `Cc1ccc(-c2nc(-c3nnc4n3CCN(C(=O)c3ccc(-c5cccs5)cc3)C4)cs2)cc1` [Compound 191, (4-(thiophen-2-yl)phenyl)(3-(2-(p-tolyl)thiazol-4-yl)-5,6-dihydro-[1,2,4]triazolo[4,3-a]pyrazin-7(8H)-yl)methanone], the Ki is reported as over 5000 nM.
For `O=C(c1ccc(Cl)c(Cl)c1)N1CCn2c(nnc2-c2ccccn2)C1` [Compound 5, (3,4-dichlorophenyl)(3-(pyridin-2-yl)-5,6-dihydro-[1,2,4]triazolo[4,3-a]pyrazin-7(8H)-yl)methanone], the Ki was 1000 to 5000 nM.
`C[C@@H]1c2nnc(-c3csc(N4CCOCC4)n3)n2CCN1C(=O)c1ccc(-c2cccs2)cc1` [Compound 136, (R)-(8-methyl-3-(2-morpholinothiazol-4-yl)-5,6-dihydro-[1,2,4]triazolo[4,3-a]pyrazin-7(8H)-yl)(4-(thiophen-2-yl)phenyl)methanone] showed a Ki of under 500 nM.
With `CC1c2nnc(-c3coc(-c4ccccc4)n3)n2CCN1C(=O)c1ccc(-c2ccccc2)cc1` (stereo not shown) [Compound 49, [1,1′-biphenyl]-4-yl(8-methyl-3-(2-phenyloxazol-4-yl)-5,6-dihydro-[1,2,4]triazolo[4,3-a]pyrazin-7(8H)-yl)methanone] the Ki was under 500 nM.
`O=C(c1ccc(F)cc1)N1CCn2c(nnc2-c2csc(N3CCOCC3)n2)C1` [Compound 9, (4-fluorophenyl)(3-(2-morpholinothiazol-4-yl)-5,6-dihydro-[1,2,4]triazolo[4,3-a]pyrazin-7(8H)-yl)methanone] gave a Ki of under 500 nM.
Molecule `NCCOc1ccccc1-c1nc(-c2nnc3n2CCN(C(=O)c2ccc(-c4cccs4)cc2)C3)cs1` [Compound 282, (3-(2-(2-(2-aminoethoxy)phenyl)thiazol-4-yl)-5,6-dihydro-[1,2,4]triazolo[4,3-a]pyrazin-7(8H)-yl)(4-(thiophen-2-yl)phenyl)methanone] has a Ki of 500 to 1000 nM.
Work on `O=C(c1ccc(F)cc1)N1CCn2c(nnc2-c2csc(N3CCN(c4ccccc4)CC3)n2)C1` [Compound 34, (4-fluorophenyl)(3-(2-(4-phenylpiperazin-1-yl)thiazol-4-yl)-5,6-dihydro-[1,2,4]triazolo[4,3-a]pyrazin-7(8H)-yl)methanone] yielded a Ki of under 500 nM.
In the case of `O=C(c1ccc(F)cc1)N1CCn2c(nnc2-c2nc(-c3ccccc3)ns2)C1` [Compound 212, (4-fluorophenyl)(3-(3-phenyl-1,2,4-thiadiazol-5-yl)-5,6-dihydro-[1,2,4]triazolo[4,3-a]pyrazin-7(8H)-yl)methanone], the Ki is reported as under 500 nM.
`O=C(c1ccc(-c2cccs2)cc1)N1CCn2c(nnc2-c2csc(-c3ccncc3)n2)C1` [Compound 228, (3-(2-(pyridin-4-yl)thiazol-4-yl)-5,6-dihydro-[1,2,4]triazolo[4,3-a]pyrazin-7(8H)-yl)(4-(thiophen-2-yl)phenyl)methanone] showed a Ki of under 500 nM.
In the case of `O=C(c1ccc(-c2ccc(F)cc2)cc1)N1CCn2c(nnc2-c2csc(CS(=O)(=O)c3ccc(Cl)cc3)n2)C1` [Compound 200, (3-(2-(((4-chlorophenyl)sulfonyl)methyl)thiazol-4-yl)-5,6-dihydro-[1,2,4]triazolo[4,3-a]pyrazin-7(8H)-yl)(4′-fluoro-[1,1′-biphenyl]-4-yl)methanone], the Ki is reported as 500 to 1000 nM.
Work on `CC1c2nnc(-c3coc(-c4ccccc4)n3)n2CCN1C(=O)c1ccc(F)cc1` (stereo not shown) [Compound 48, (4-fluorophenyl)(8-methyl-3-(2-phenyloxazol-4-yl)-5,6-dihydro-[1,2,4]triazolo[4,3-a]pyrazin-7(8H)-yl)methanone] yielded a Ki of under 500 nM.
In the case of `CN1CCN(c2ccc(-c3nc(-c4nnc5n4CCN(C(=O)c4ccc(-c6cccs6)cc4)C5)cs3)cc2)CC1` [Compound 241, (3-(2-(4-(4-methylpiperazin-1-yl)phenyl)thiazol-4-yl)-5,6-dihydro-[1,2,4]triazolo[4,3-a]pyrazin-7(8H)-yl)(4-(thiophen-2-yl)phenyl)methanone], the Ki is reported as under 500 nM.

Reference: patent US10544150B2, “NK-3 receptor selective antagonist compounds, pharmaceutical composition and methods for use in NK-3 receptors mediated disorders” (Ogeda SA, priority 2010, dated 2020)
